For 1 cell line, relative viability results are on record in the supplement of paper PMC10307832.

What all share (experiment): relative viability (nuclei count vs DMSO), 5 days (fraction); higher = more cells survive
Compound in the assay “QS11 + Phenformin”: C1CC2=C(C1)C=C(C=C2)OC3=NC(=C4C(=N3)N(C=N4)CC5=CC=C(C=C5)C6=CC=CC=C6)N[C@@H](CC7=CC=CC=C7)CO [QS11] + N=C(N)NC(=N)NCCc1ccccc1 [Phenformin] (partner 250 µM)
An outline of the steps:
(§1)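 For relative viability, nuclei counts in treated wells were divided by those in vehicle wells. Lung cancer cell lines had been pin-tool dosed in 1536-well plates the day after seeding and cultured for 5 days, then fixed and stained in one step (final 0.05% Triton X-100, 1% formaldehyde, 1 ug/ml Hoechst) and imaged at 4×. Doses were one drug alone or a fixed anchor-drug dose plus five library-drug doses (not always all listed) in √10 steps, and values are duplicate-plate medians.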

Compound in the assay “AZ628 + Lapatinib”: CC1=C(C=C(C=C1)NC(=O)C2=CC(=CC=C2)C(C)(C)C#N)NC3=CC4=C(C=C3)N=CN(C4=O)C [AZ628] + CS(=O)(=O)CCNCc1ccc(-c2ccc3ncnc(Nc4ccc(OCc5cccc(F)c5)c(Cl)c4)c3c2)o1 [Lapatinib] (partner 2 µM)
An outline of the steps:
as §1

Compound in the assay “Darinaparsin + Foretinib”: C[As](C)SC[C@H](NC(=O)CC[C@H](N)C(=O)O)C(=O)NCC(=O)O [Darinaparsin] + COc1cc2c(Oc3ccc(NC(=O)C4(C(=O)Nc5ccc(F)cc5)CC4)cc3F)ccnc2cc1OCCCN1CCOCC1 [Foretinib] (partner 0.25 µM)
An outline of the steps:
as §1

Compound in the assay “QS11 + Navitoclax”: C1CC2=C(C1)C=C(C=C2)OC3=NC(=C4C(=N3)N(C=N4)CC5=CC=C(C=C5)C6=CC=CC=C6)N[C@@H](CC7=CC=CC=C7)CO [QS11] + CC1(C)CCC(c2ccc(Cl)cc2)=C(CN2CCN(c3ccc(C(=O)NS(=O)(=O)c4ccc(N[C@H](CCN5CCOCC5)CSc5ccccc5)c(S(=O)(=O)C(F)(F)F)c4)cc3)CC2)C1 [Navitoclax] (partner 0.5 µM)
An outline of the steps:
as §1

With LCLC-97TM1, the relative viability in the assay with QS11 + Phenformin (first compound 0.08 µM) was 0.371; with QS11 + Phenformin (first compound 0.253 µM), 0.431; with QS11 + Phenformin (first compound 2.53 µM) it was 0.354; with QS11 + Phenformin (first compound 8 µM), 0.294; with AZ628 + Lapatinib (first compound 0.08 µM) it was 1.01; in the assay with AZ628 + Lapatinib (first compound 0.253 µM) it was 1.01. Also, the relative viability turned out to be 1.37 with AZ628 + Lapatinib (first compound 0.8 µM); 1.2 in the assay with AZ628 + Lapatinib (first compound 2.53 µM); 0.152 with AZ628 + Lapatinib (first compound 8 µM); 0.981 with Darinaparsin + Foretinib (first compound 0.08 µM); 0.882 in the assay with Darinaparsin + Foretinib (first compound 0.8 µM); 0.824 in the assay with Darinaparsin + Foretinib (first compound 2.53 µM). In addition, the relative viability with Darinaparsin + Foretinib (first compound 8 µM) is 1.04; in the assay with QS11 + Navitoclax (first compound 0.08 µM) it was 0.414; in the assay with QS11 + Navitoclax (first compound 0.253 µM), 0.328; with QS11 + Navitoclax (first compound 0.8 µM), 0.387; with QS11 + Navitoclax (first compound 2.53 µM) it was 0.503; with QS11 + Navitoclax (first compound 8 µM), 0.432.
